{"source": "patent US9844578B2", "about": "“Accelerated healing of eye injuries by angiotensin peptides” (UNIVERSITY OF SOUTHERN CALIFORNIA, priority 2013, dated 2017)", "tested_on": "full-thickness corneal incision", "conditions": "rabbit, in vivo", "experimental": "Animal Preparation and Procedure:\nBefore each procedure, the rabbits were anesthetized with a subcutaneous injection of a mixture of ketamine hydrochloride (50-80 mg/kg) and xylazine hydrochloride (5-9 mg/kg). The animal was prepared for sterile surgery conducted under aseptic conditions. Periorbital area was cleaned using 5% povidone iodine solution and a drop of this solution was instilled into the fornix and a speculum was used to hold the eyelids open. Using corneal blade (Keratome 3.2 mm), a clear corneal full-thickness tunnel was created in the same manner as in human phacoemulsification surgery. To prevent the globe collapse after corneal tunnel creation, a small amount of viscoelastic was injected in the anterior chamber through a paracentesis. Gentamicin 25 mg, and dexamethasone 2 mg were injected subconjunctivally. Post-operatively, analgesia was administered. Animals allocated to the treatment group were treated with 1 drop (approximately 50 μl) of the active drug (0.03% or 0.3% Nle3 A(1-7) in 2% hydroxyethyl cellulose in 0.05 M phosphate buffer, pH 6.5) under investigation instilled into the conjunctival sac daily (using a dropper throughout the follow-up period. On the other hand, animals allocated to the control group will be treated with vehicle (2% hydroxyethyl cellulose in 0.05 M phosphate buffer, pH 6.5) eyedrops daily throughout the follow-up period.\nThese ocular follow-up examinations were done while the animal was under anesthesia as described above. Anterior segment imaging includes red free picture and anterior segment fluorescein imaging using Spectralis (Heildelberg Engineering, Germany) where sequential photos are taken after one drop of 10% fluorescein (Akorn Abit Springs, La.) was instilled in the conjunctival sac and a slight pressure was applied to the globe. This is more commonly known as Seidel's test in which fluorescein strip containing 10% fluorescein was applied topically to the affected area and was examined with a cobalt blue filter. At this point, the fluorescein appears green in color. Any changes in color or surface of the fluorescence area indicate the presence of conical leakage. This imaging data were used to assess the degree of corneal wound healing as well as extent of wound leak. Measurement of the intraocular pressure was performed using Tonopen-AVIVA (TPA, Reichert Inc.).\nThe injury was also imaged using involved using a Heidelberg Retina Tomograph (HRT) instrument. This is a confocal scanning laser ophthalmoscope which was converted into a confocal corneal microscope using an additional microscope lens which attached to the standard lens. This additional lens enabled the HRT to image cells and cell layers within the cornea to allow an in-life phase assessment of the healing and structure of the cornea to allow detailed views of the conical structure and pathology.", "note": "Residues, ends and D or L forms follow the SMILES beside them.", "data": [{"compound": "CCCC[C@H](NC(=O)[C@H](CCCNC(=N)N)NC(=O)[C@@H](N)CC(=O)O)C(=O)N[C@@H](Cc1ccc(O)cc1)C(=O)N[C@H](C(=O)N[C@@H](Cc1c[nH]cn1)C(=O)N1CCC[C@H]1C(=O)O)[C@@H](C)CC", "note": "[Nle3-A(1-7), Asp-Arg-Nle-Tyr-Ile-His-Pro] (HELM PEPTIDE1{D.R.[Nle].Y.I.H.P}$$$$V2.0)", "values": [{"measurement": "Complications", "value": "None"}, {"measurement": "Fundus Exam & Fluorescein angiography", "value": "Normal"}, {"measurement": "IOP", "value": "Normal"}, {"measurement": "change in intraocular pressure", "value": "no change"}, {"measurement": "fundus examination and fluorescein angiography", "value": "normal"}]}]}
